Here are results for ten compounds from patent US9382218B2, “N-heteroaryl substituted aniline derivatives as HCV-antivirals” (priority 2013, dated 2016).

The structures appear in SMILES notation.

What all share (assay): microbe, parasite or virus in culture
Assay [1] relates to HCVpp GT-1a (pseudotyped HCV particles, E1/E2 of GT1a H77 strain). In kind it is cell-based, Hepatitis C virus GT1a H77 strain. The following applies: Hepatitis C virus, 72 h, read-out: HCVpp GT-1a (EC50, M).
Assay [2] relates to HCVpp GT-1b (pseudotyped HCV particles, E1/E2 of GT1b Con1 strain). The assay is classed as cell-based, Hepatitis C virus GT1b Con1 strain. Particulars: Hepatitis C virus, 72 h, read-out: HCVpp GT-1b (EC50, M).
In assay [3] the test system is VSVpp (pseudotyped VSV G particles). In kind it is cell-based. Particulars: Vesicular stomatitis virus, 72 h, read-out: VSVpp (EC50, M).

Usually EC50 stands for the concentration that produces a half-maximal response. `Nc1cc(Nc2cc(Cl)cc(Cl)c2)[nH]n1` [Compound 1, N^5-(3,5-Dichloro-phenyl)-1H-pyrazole-3,5-diamine]: the EC50 in assay [1] is 3.99e-05 M; in assay [2], 6.4e-05 M; in assay [3], not below 0.0001 M.

For the compound `Nc1cc(Nc2cc(Cl)c(F)c(Cl)c2)[nH]n1` [Compound 2, N^5-(3,5-Dichloro-4-fluoro-phenyl)-1H-pyrazole-3,5-diamine], the EC50 in assay [2] worked out at 5.22e-05 M; in assay [3], 3.4e-05 M.

With `Cc1nnc(Nc2cc(Cl)cc(Cl)c2)o1` [Compound 3, (3,5-Dichloro-phenyl)-(5-methyl-[1,3,4]oxadiazol-2-yl)-amine], the EC50 is 3.93e-05 M in assay [1], 3.58e-05 M in assay [2] and not below 0.0001 M in assay [3].

With `Nc1nc(Nc2cccc(C(F)(F)F)c2)no1` [Compound 4, N^3-(3-Trifluoromethyl-phenyl)-[1,2,4]oxadiazole-3,5-diamine], the EC50 in assay [1] is 1.36e-06 M; in assay [2], 6.06e-06 M; in assay [3], more than 0.0001 M.

Regarding `Nc1noc(Nc2cc(Cl)cc(Cl)c2)n1` [Compound 5, N^5-(3,5-Dichloro-phenyl)-[1,2,4]oxadiazole-3,5-diamine], the EC50 was found to be 8.63e-06 M in assay [1], 9.22e-06 M in assay [2] and 9.8e-06 M in assay [3].

Take `Nc1nc(Nc2cc(Cl)cc(Cl)c2)no1` [Compound 6, N^3-(3,5-Dichloro-phenyl)-[1,2,4]oxadiazole-3,5-diamine]: the EC50 worked out at 3.55e-06 M in assay [1], 1.03e-05 M in assay [2] and 8.6e-05 M in assay [3].

As to `Nc1nc(Nc2cc(Cl)cc(C(F)(F)F)c2)no1` [Compound 8, N^3-(3-Chloro-5-trifluoromethyl-phenyl)-[1,2,4]oxadiazole-3,5-diamine], the EC50 in assay [2] was 9.03e-06 M; in assay [3] it was not below 0.0001 M.

As to `CS(=O)(=O)Nc1cccc(-c2c(Cl)cc(Nc3nc(N)no3)cc2C(F)(F)F)c1` [Compound 9, N-[4′-(3-Amino-[1,2,4]oxadiazol-5-ylamino)-6′-chloro-2′-trifluoromethyl-biphenyl-3-yl]-methanesulfonamide], the EC50 was found to be 2.99e-06 M in assay [2] and 7.04e-06 M in assay [3].

In the case of `CS(=O)(=O)Nc1cccc(-c2c(Cl)cc(Nc3noc(N)n3)cc2C(F)(F)F)c1` [Compound 10, N-[4′-(5-Amino-[1,2,4]oxadiazol-3-ylamino)-6′-chloro-2′-trifluoromethyl-biphenyl-3-yl]-methanesulfonamide], the values for the EC50 in assay [2] and in assay [3] were 1.53e-06 M and 9.87e-06 M, respectively.

On to `Nc1cnc(Nc2cc(Cl)cc(Cl)c2)o1` [Compound 11, N^2-(3,5-Dichloro-phenyl)-oxazole-2,5-diamine], for which the EC50 is 2.93e-05 M in assay [1] and not below 0.0001 M in assay [3].
